Experimental data from patent publication US20240270821A1, “GIP/GLP1/GCG TRI-RECEPTOR AGONISTS AND USES THEREOF” (priority 2023, published 2024).
pEC50: −log10 of the molar value.

Assays:
Type in all cases: cell-based
hGIPR [1] = target: T1, hGIPR (Homo sapiens, UniProt P48546); experiment: Functional cAMP activity in the presence of 1% HSA; conditions: read-out: cAMP Rel EC50, hGIPR
T1 sequence (P48546 22-466): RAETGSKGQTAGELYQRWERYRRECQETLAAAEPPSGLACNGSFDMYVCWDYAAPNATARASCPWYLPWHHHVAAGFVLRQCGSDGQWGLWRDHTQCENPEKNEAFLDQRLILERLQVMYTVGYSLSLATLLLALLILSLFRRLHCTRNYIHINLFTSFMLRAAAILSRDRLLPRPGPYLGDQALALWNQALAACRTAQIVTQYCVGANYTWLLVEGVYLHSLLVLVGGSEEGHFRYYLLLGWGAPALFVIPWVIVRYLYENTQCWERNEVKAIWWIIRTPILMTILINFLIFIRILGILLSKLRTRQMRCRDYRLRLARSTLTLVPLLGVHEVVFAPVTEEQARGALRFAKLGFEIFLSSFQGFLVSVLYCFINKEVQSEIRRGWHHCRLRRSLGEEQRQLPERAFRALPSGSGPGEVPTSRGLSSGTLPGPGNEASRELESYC

hGLP-1R [2] = target: T2, hGLP-1R (Homo sapiens, UniProt P43220); experiment: Functional cAMP activity in the presence of 1% HSA; conditions: read-out: cAMP Rel EC50, hGLP-1R
human GcgR = human GcgR (Homo sapiens, UniProt P47871); experiment: Functional cAMP activity in the presence of 1% HSA; conditions: read-out: cAMP Rel EC50, hGcgR
hGIPR [3] = target: T1, hGIPR; experiment: Functional cAMP activation in the presence of 0.1% casein (no HSA); conditions: in the presence of 0.1% casein (no HSA); geometric mean; read-out: Relative cAMP EC50, hGIPR;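 on Relative cAMP EC50, hGIPR: intracellular cAMP rise after 30 min at 37 °C read by HTRF against a standard curve, scaled between buffer alone (0%) and top control ligand concentration (100%), four-parameter fit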;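 on Relative cAMP EC50, hGLP-1R: intracellular cAMP rise after 30 min at 37 °C read by HTRF, normalized between buffer only (0%) and maximal control ligand (100%), four-parameter variable-slope fit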;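 on Relative cAMP EC50, hGcgR: intracellular cAMP rise after 30 min at 37 °C, read by HTRF against a cAMP standard curve, scaled from buffer only (0%) to maximal control ligand response (100%)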
hGLP-1R [4] = target: T2, hGLP-1R; experiment: as above; conditions: in the presence of 0.1% casein (no HSA); geometric mean; read-out: Relative cAMP EC50, hGLP-1R
hGcgR = hGcgR (Homo sapiens, UniProt P47871); experiment: as above; conditions: in the presence of 0.1% casein (no HSA); geometric mean; read-out: Relative cAMP EC50, hGcgR;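 further: intracellular cAMP rise after 30 min at 37 °C, read by HTRF against a cAMP standard curve, scaled from buffer only (0%) to maximal control ligand response (100%)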
Chain of hGcgR (P47871 26-477): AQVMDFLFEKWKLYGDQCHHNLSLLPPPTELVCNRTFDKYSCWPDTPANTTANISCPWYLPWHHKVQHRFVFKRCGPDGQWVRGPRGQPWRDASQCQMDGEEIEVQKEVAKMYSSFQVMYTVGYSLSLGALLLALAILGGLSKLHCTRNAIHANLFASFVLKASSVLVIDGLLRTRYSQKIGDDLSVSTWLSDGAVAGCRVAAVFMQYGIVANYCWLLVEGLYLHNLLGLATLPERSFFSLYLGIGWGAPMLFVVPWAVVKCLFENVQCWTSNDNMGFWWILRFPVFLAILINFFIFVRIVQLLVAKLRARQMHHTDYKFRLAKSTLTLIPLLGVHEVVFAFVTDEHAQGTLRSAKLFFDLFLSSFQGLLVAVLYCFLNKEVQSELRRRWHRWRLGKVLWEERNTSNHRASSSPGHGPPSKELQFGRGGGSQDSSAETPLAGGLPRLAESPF

T2 sequence (P43220 24-463): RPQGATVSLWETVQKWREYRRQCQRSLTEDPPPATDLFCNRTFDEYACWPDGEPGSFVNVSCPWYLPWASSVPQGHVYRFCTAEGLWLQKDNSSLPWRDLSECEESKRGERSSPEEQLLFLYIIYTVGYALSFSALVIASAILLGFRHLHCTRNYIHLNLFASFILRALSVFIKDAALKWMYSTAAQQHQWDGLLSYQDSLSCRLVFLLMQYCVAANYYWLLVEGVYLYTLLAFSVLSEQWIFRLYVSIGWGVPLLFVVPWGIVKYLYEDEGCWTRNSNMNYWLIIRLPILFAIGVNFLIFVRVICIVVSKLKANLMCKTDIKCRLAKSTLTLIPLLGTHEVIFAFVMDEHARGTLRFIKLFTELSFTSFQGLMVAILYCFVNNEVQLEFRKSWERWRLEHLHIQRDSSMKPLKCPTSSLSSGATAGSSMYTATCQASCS
Chain of human GcgR (P47871 26-477): as the sequence (P47871 26-477) above

Structure (SMILES) | pEC50 (hGIPR [1]) | pEC50 (hGLP-1R [2]) | pEC50 (human GcgR) | pEC50 (hGIPR [3]) | pEC50 (hGLP-1R [4]) | pEC50 (hGcgR)
CC[C@H](C)[C@H](NC(=O)[C@H](Cc1ccccc1)NC(=O)[C@H](C)NC(=O)C(C)(C)NC(=O)[C@H](CCC(N)=O)NC(=O)[C@H](C)NC(=O)[C@H](CCCCNC(=O)COCCOCCNC(=O)COCCOCCNC(=O)CC[C@H](NC(=O)CCCCCCCCCCCCCCCCC(=O)O)C(=O)O)NC(=O)[C@H](CCCCN)NC(=O)[C@H](CC(=O)O)NC(=O)[C@H](CC(C)C)NC(=O)[C@](C)(CC(C)C)NC(=O)[C@H](CCCN)NC(=O)[C@H](CO)NC(=O)[C@H](Cc1ccccc1)NC(=O)[C@H](CC(=O)O)NC(=O)[C@H](CO)NC(=O)[C@@H](NC(=O)[C@H](Cc1ccccc1)NC(=O)[C@@H](NC(=O)CNC(=O)[C@H](CCC(N)=O)NC(=O)C(C)(C)NC(=O)[C@@H](N)Cc1ccc(O)cc1)[C@@H](C)O)[C@@H](C)O)C(=O)N[C@@H](CCC(=O)O)C(=O)N[C@@H](Cc1ccc(O)cc1)C(=O)N[C@@H](CC(C)C)C(=O)N[C@@H](CC(C)C)C(=O)N[C@@H](CCC(=O)O)C(=O)N[C@H](C)C(=O)NCC(=O)N1CCC[C@H]1C(=O)N[C@@H](CO)C(=O)N[C@@H](CO)C(=O)NCC(=O)N[C@@H](C)C(=O)N1CCC[C@H]1C(=O)N1CCC[C@H]1C(=O)N1CCC[C@H]1C(=O)N[C@@H](CO)C(=O)NCC(=O)N[C@@H](CCC(=O)O)C(N)=O [Example 128] | 7.61 | 6.17 | 5.96 | 9.51 | 8.46 | 8.17
CC[C@H](C)[C@H](NC(=O)[C@H](Cc1ccccc1)NC(=O)[C@H](C)NC(=O)C(C)(C)NC(=O)[C@H](CCC(N)=O)NC(=O)[C@H](C)NC(=O)[C@H](CCCCNC(=O)CC[C@H](NC(=O)CC[C@H](NC(=O)CCCCCCCCCCCCCCCCC(=O)O)C(=O)O)C(=O)O)NC(=O)[C@H](CCCCN)NC(=O)[C@H](CC(=O)O)NC(=O)[C@H](CC(C)C)NC(=O)[C@](C)(CC(C)C)NC(=O)[C@H](CCCN)NC(=O)[C@H](CO)NC(=O)[C@H](Cc1ccccc1)NC(=O)[C@H](CC(=O)O)NC(=O)[C@H](CO)NC(=O)[C@@H](NC(=O)[C@H](Cc1ccccc1)NC(=O)[C@@H](NC(=O)CNC(=O)[C@H](CCC(N)=O)NC(=O)C(C)(C)NC(=O)[C@@H](N)Cc1ccc(O)cc1)[C@@H](C)O)[C@@H](C)O)C(=O)N[C@@H](CCC(=O)O)C(=O)N[C@@H](Cc1ccc(O)cc1)C(=O)N[C@@H](CC(C)C)C(=O)N[C@@H](CC(C)C)C(=O)N[C@@H](CCC(=O)O)C(=O)NCC(=O)NCC(=O)N1CCC[C@H]1C(=O)N[C@@H](CO)C(=O)N[C@@H](CO)C(=O)NCC(=O)N[C@@H](C)C(=O)N1CCC[C@H]1C(=O)N1CCC[C@H]1C(=O)N1CCC[C@H]1C(=O)N[C@@H](CO)C(=O)NCC(=O)N[C@@H](CO)C(N)=O [Example 199] | 7.38 | 5.97 | 6.00 | 9.63 | 8.31 | 8.24
CC[C@H](C)[C@H](NC(=O)[C@H](Cc1ccccc1)NC(=O)[C@H](C)NC(=O)C(C)(C)NC(=O)[C@H](CCC(N)=O)NC(=O)[C@H](C)NC(=O)[C@H](CCCCNC(=O)COCCOCCNC(=O)CC[C@H](NC(=O)CCCCCCCCCCCCCCCCC(=O)O)C(=O)O)NC(=O)[C@H](CCCCN)NC(=O)[C@H](CC(=O)O)NC(=O)[C@H](CC(C)C)NC(=O)[C@](C)(CC(C)C)NC(=O)[C@H](CCCN)NC(=O)[C@H](CO)NC(=O)[C@H](Cc1ccccc1)NC(=O)[C@H](CC(=O)O)NC(=O)[C@H](CO)NC(=O)[C@@H](NC(=O)[C@H](Cc1ccccc1)NC(=O)[C@@H](NC(=O)CNC(=O)[C@H](CCC(N)=O)NC(=O)C(C)(C)NC(=O)[C@@H](N)Cc1ccc(O)cc1)[C@@H](C)O)[C@@H](C)O)C(=O)N[C@@H](CCC(=O)O)C(=O)N[C@@H](Cc1ccc(O)cc1)C(=O)N[C@@H](CC(C)C)C(=O)N[C@@H](CC(C)C)C(=O)N[C@@H](CCC(=O)O)C(=O)N[C@H](C)C(=O)NCC(=O)N1CCC[C@H]1C(=O)N[C@@H](CO)C(=O)N[C@@H](CO)C(=O)NCC(=O)N[C@@H](C)C(=O)N1CCC[C@H]1C(=O)N1CCC[C@H]1C(=O)N1CCC[C@H]1C(=O)N[C@@H](CCC(=O)O)C(=O)NCC(=O)N[C@@H](CCC(=O)O)C(N)=O [Example 206] | 7.41 | 6.43 | 6.26 | 9.65 | 8.56 | 8.66
CC[C@H](C)[C@H](NC(=O)[C@H](Cc1ccccc1)NC(=O)[C@H](C)NC(=O)C(C)(C)NC(=O)[C@H](CCC(N)=O)NC(=O)[C@H](C)NC(=O)[C@H](CCCCNC(=O)COCCOCCNC(=O)CC[C@H](NC(=O)CCCCCCCCCCCCCCCCC(=O)O)C(=O)O)NC(=O)[C@H](CCCCN)NC(=O)[C@H](CC(=O)O)NC(=O)[C@H](CC(C)C)NC(=O)[C@](C)(CC(C)C)NC(=O)[C@H](CCCN)NC(=O)[C@H](CO)NC(=O)[C@H](Cc1ccccc1)NC(=O)[C@H](CC(=O)O)NC(=O)[C@H](CO)NC(=O)[C@@H](NC(=O)[C@H](Cc1ccccc1)NC(=O)[C@@H](NC(=O)CNC(=O)[C@H](CCC(N)=O)NC(=O)C(C)(C)NC(=O)[C@@H](N)Cc1ccc(O)cc1)[C@@H](C)O)[C@@H](C)O)C(=O)N[C@@H](CCC(=O)O)C(=O)N[C@@H](Cc1ccc(O)cc1)C(=O)N[C@@H](CC(C)C)C(=O)N[C@@H](CC(C)C)C(=O)N[C@@H](CCC(=O)O)C(=O)N[C@H](C)C(=O)NCC(=O)N[C@@H](Cc1ccncc1)C(=O)N[C@@H](CO)C(=O)N[C@@H](CO)C(=O)NCC(=O)N[C@@H](C)C(=O)N1CCC[C@H]1C(=O)N1CCC[C@H]1C(=O)N1CCC[C@H]1C(=O)N[C@@H](CO)C(=O)NCC(=O)N[C@@H](CCC(=O)O)C(N)=O [Example 252] | 7.61 | 6.30 | 6.28 | 9.83 | 8.45 | 8.58
CC[C@H](C)[C@H](NC(=O)[C@H](Cc1ccccc1)NC(=O)[C@H](C)NC(=O)C(C)(C)NC(=O)[C@H](CCC(N)=O)NC(=O)[C@H](C)NC(=O)[C@H](CCCCNC(=O)COCCOCCNC(=O)CC[C@H](NC(=O)CCCCCCCCCCCCCCCCC(=O)O)C(=O)O)NC(=O)[C@H](CCCCN)NC(=O)[C@H](CC(=O)O)NC(=O)[C@H](CC(C)C)NC(=O)[C@](C)(CC(C)C)NC(=O)[C@H](CCCN)NC(=O)[C@H](CO)NC(=O)[C@H](Cc1ccccc1)NC(=O)[C@H](CC(=O)O)NC(=O)[C@H](CO)NC(=O)[C@@H](NC(=O)[C@H](Cc1ccccc1)NC(=O)[C@@H](NC(=O)CNC(=O)[C@H](CCC(N)=O)NC(=O)C(C)(C)NC(=O)[C@@H](N)Cc1ccc(O)cc1)[C@@H](C)O)[C@@H](C)O)C(=O)N[C@@H](CCC(=O)O)C(=O)N[C@@H](Cc1ccc(O)cc1)C(=O)N[C@@H](CC(C)C)C(=O)N[C@@H](CC(C)C)C(=O)N[C@@H](CCC(=O)O)C(=O)N[C@H](C)C(=O)NCC(=O)N1CCC[C@H]1C(=O)N[C@@H](CO)C(=O)N[C@@H](CO)C(=O)NCC(=O)N[C@@H](C)C(=O)N1CCC[C@H]1C(=O)N1CCC[C@H]1C(=O)N1CCC[C@H]1C(=O)N[C@@H](CO)C(=O)NCC(=O)N[C@@H](Cc1c[nH]cn1)C(N)=O [Example 259] | 7.74 | 6.66 | 6.50 | 9.94 | 8.83 | 8.59
CC[C@H](C)[C@H](NC(=O)[C@H](Cc1ccccc1)NC(=O)[C@H](C)NC(=O)C(C)(C)NC(=O)[C@H](CCC(N)=O)NC(=O)[C@H](C)NC(=O)[C@H](CCCCNC(=O)COCCOCCNC(=O)CC[C@H](NC(=O)CCCCCCCCCCCCCCCCC(=O)O)C(=O)O)NC(=O)[C@H](CCCCN)NC(=O)[C@H](CC(=O)O)NC(=O)[C@H](CC(C)C)NC(=O)[C@](C)(CC(C)C)NC(=O)[C@H](CCCCN)NC(=O)[C@H](CO)NC(=O)[C@H](Cc1ccncc1)NC(=O)[C@H](CC(=O)O)NC(=O)[C@H](CO)NC(=O)[C@@H](NC(=O)[C@H](Cc1ccccc1)NC(=O)[C@@H](NC(=O)CNC(=O)[C@H](CCC(N)=O)NC(=O)C(C)(C)NC(=O)[C@@H](N)Cc1ccc(O)cc1)[C@@H](C)O)[C@@H](C)O)C(=O)N[C@@H](CCC(=O)O)C(=O)N[C@@H](Cc1ccc(O)cc1)C(=O)N[C@@H](CC(C)C)C(=O)N[C@H](C(=O)N[C@@H](CCC(=O)O)C(=O)N[C@H](C)C(=O)NCC(=O)N[C@@H](CCC(=O)O)C(=O)N[C@@H](CO)C(=O)N[C@@H](CO)C(=O)NCC(=O)N[C@@H](C)C(=O)N1CCC[C@H]1C(=O)N1CCC[C@H]1C(=O)N1CCC[C@H]1C(=O)N[C@@H](CO)C(=O)NCC(=O)N[C@@H](CO)C(N)=O)[C@@H](C)CC [Example 283] | 7.33 | 6.63 | 5.83 | 9.65 | 8.94 | 8.01
